From US4081533A, “Method of reducing mammalian fertility and drugs therefor” (Regents of the University of California, priority 1976, dated 1978)
“Also recorded” adds a separate entry of the source. Counter-ions that a name gives are not always drawn. Like-named read-outs stand apart in the source and are kept apart here. Positions of bridges follow the written chain, without caps; N, C: chain ends. Residues, ends and D or L forms follow the SMILES beside them.

Columns and labels:
[1] = system: preovulatory surge of LH; test: Pre-ovulatory LH surge in proestrus rats (hourly blood samples, radioimmunoassay); assay type: in vivo, rat; conditions: for LH surge and ovulation inhibitory effect (in words): administered prior to ovulation, rats
Experimental: (§1) These subjects were administered various dosages of the peptides of the invention as well as control materials, i.e., saline solution alone, and the naturally occuring peptides, vasopressin and oxytocin, that are related to the cyclic nonapeptide, 8-arginine vasotocin. Both vasopressin and oxytocin are well documented in the literature. Vasopressin is very closely related to 8-arginine vastocin, and has the cyclic nonapeptide structure: [drawing 2] wherein the 3rd amino acid moiety is phenylalanine rather than isoleucine that occurs in the 8-arginine vasotocin. In all other respects the vasopressin peptide chain is identical to 8-arginine vasotocin. Vasopressin is found in the posterior lobe of the pituitary gland.
(§2) More specifically, in normal cycling female rats there is a dramatic surge in the level of luteinizing hormone (LH) in the blood on the afternoon of proestrus. This surge of LH can be detected by monitoring periodic blood samples. These samples are secured by inserting a cannula into the right atrium of the heart. 50 microliters of blood are withdrawn each hour for some 6 to 7 samples. The levels of LH therein is determined using radioimmunossay techniques. Under normal circumstances, ovulation occurs about 12 hours later. The oviducts are then removed and the ova are recovered therefrom by inserting a hypodermic into the tubal ostium and flushing with phosphate-buffered saline. Freed ova are collected in a micropipette and counted. In the tests, the normal cycling rats were administered both control saline, and various dosages of 8-arginine vasotocin, prolyl-arginyl-glycinamide, prolyl-lysyl-glycinamide, vasopressin and oxytocin.
(§3) In every instance, the peptide dosage was administered in saline via heart cannula at one hour intervals over a 4 hour period.

[2] = system: ovulation; test: Ovulation in proestrus rats (ova flushed from oviducts and counted); assay type: in vivo, rat
Experimental: as §1, §2, §3

[3] = rat, in vivo
Source text: The level of nonapeptide or tripeptide in the body fluids necessary to inhibit the LH surge and subsequent ovulation will vary from species to species and from individual to individual. In this regard, however, the nonapeptide does appear to have at least 50-100 times the activity, on a weight basis, of the tripeptide. Therefore, effective dosage levels of the tripeptides are necessarily higher than the nonapeptides, by as much as two or three orders of magnitude. On the other hand, the tripeptide, being a much simpler molecular, is more easily metabolized, and the higher dosage requirements are easily tolerated and produce no side effects. […] A technique similar to that disclosed herein for the synthesis of the tripeptide may be utilized; although it will be recognized that the production of a nine membered peptide will be considerably more costly and time consuming that the production of the tripeptide. But such synthesis techniques are available to secure the 8-arginine vasotocin utilized in the present invention.

[4] = system: Pre-Ovulatory Surge of Prolactin; test: Pre-ovulatory surge of prolactin in rats; assay type: in vivo, rat; conditions: for Inhibitory effect on prolactin surge (in words): summary of Table II
Experimental: 8-arginine vasotocin, vasopressin, and oxytocin were administered at various dosage levels and rates to a number of rats. Saline solution was utilized as a control.

[5] = reason given for unsuitability in the method; cited from earlier work
[6] = proestrus rats, dosage 0.6 mg in saline via heart cannula at one hour intervals over a 4 hour period, acetate salt
[7] = proestrus rats, dosage 1.0 μg in saline via heart cannula at one hour intervals over a 4 hour period, acetate salt
[8] = proestrus rats, dosage 5.0 μg in saline via heart cannula at one hour intervals over a 4 hour period, acetate salt
[9] = dosage 1μg/120 min, total dose 2 μg
[10] = dosage 1μ/30 min, total dose 7 μg
[11] = proestrus rats, dosage 0.1 μg in saline via heart cannula at one hour intervals over a 4 hour period, acetate salt
[12] = dihydrochloride form, dosage 1 μg, same conditions as Table I

In the case of N=C(N)NCCC[C@H](NC(=O)[C@@H]1CCCN1)C(=O)NCC(N)=O [Prolyl-arginyl-glycinamide, prolyl-arginyl-glycinamide] (H-Pro-Arg-Gly-NH2), the “LH surge and ovulation inhibitory effect (in words)” value [1] is reported as “exhibits a similar luteinizing hormone suppressing effect that also inhibits ovulation; also recorded: high inhibition of the LH surge and ovulation”, the “Presence of LH Surges (%)” value [1, 6] is reported as 25% and the “Presence of Ova (%)” value [2, 6] is reported as 42%. The Side effects [3] was “no noticable side effects”.

For CC[C@H](C)[C@@H]1NC(=O)[C@H](Cc2ccc(O)cc2)NC(=O)[C@@H](N)CSSC[C@@H](C(=O)N2CCC[C@H]2C(=O)N[C@@H](CC(C)C)C(=O)NCC(N)=O)NC(=O)[C@H](CC(N)=O)NC(=O)[C@H](CCC(N)=O)NC1=O [Oxytocin, reference compound], the “LH surge and ovulation inhibitory effect (in words)” value [1] was “essentially inactive”, the “Presence of LH Surges (%)” value [1, 7] was 100% and the “Presence of LH Surges (%)” value [1, 8] was 94%. For the same compound, the “Presence of Ova (%)” value [2, 7] was 100%, the “Presence of Ova (%)” value [2, 8] was 94% and the “Presence of Prolactin Surge (%)” value [4, 9] was 84%. For the same compound, the “Presence of Prolactin Surge (%)” value [4, 10] was 60% and the “Inhibitory effect on prolactin surge (in words)” value [4] was “the lowest effect”.

For CC[C@H](C)[C@@H]1NC(=O)[C@H](Cc2ccc(O)cc2)NC(=O)[C@@H](N)CSSC[C@@H](C(=O)N2CCC[C@H]2C(=O)N[C@@H](CCCNC(=N)N)C(=O)NCC(N)=O)NC(=O)[C@H](CC(N)=O)NC(=O)[C@H](CCC(N)=O)NC1=O [8-arginine-Vasotocin, 8-arginine vasotocin] (H-CYIQNCPRG-NH2; disulfide 1-6), the “LH surge and ovulation inhibitory effect (in words)” value [1] was “effectively blocked”, the “Effect on basal levels of luteinizing hormone in the blood” value ([1]; basal LH, not the surge) was “does not appear to suppress the basal levels” and the “Activity of the nonapeptide relative to the tripeptide” value ([1]; on a weight basis) was 50-100 times. For the same compound, the “Presence of LH Surges (%)” value [1, 11] was 34%, the “Presence of LH Surges (%)” value [1, 7] was 5% and the “Presence of Ova (%)” value [2, 11] was 45%. For the same compound, the “Presence of Ova (%)” value [2, 7] was 22%, the “Presence of Prolactin Surge (%)” value [4, 9] was 0% and the “Presence of Prolactin Surge (%)” value ([4]; dosage 1μg/240 min, total dose 5 μg) was 80%. For the same compound, the “Presence of Prolactin Surge (%)” value [4, 10] was 4%, the “Presence of Prolactin Surge (%)” value ([4]; dosage 1μ/60 min, total dose 4 μg) was 14% and the “Inhibitory effect on prolactin surge (in words)” value [4] was “high inhibitory effect”.

For NCCCC[C@H](NC(=O)[C@@H]1CCCN1)C(=O)NCC(N)=O [Prolyl-lysyl-glycinamide, prolyl-lysyl-glycinamide] (H-Pro-Lys-Gly-NH2), the “LH surge and ovulation inhibitory effect (in words)” value ([1]; listed as Prolyl-Lysyl-Glycinamide) was “exhibits luteinizing hormone suppressing and anovulatory properties”, the “LH surge and ovulation inhibitory effect (in words)” value ([1]; listed as prolyl-lysyl-glycinamide) was “high inhibition of the LH surge and ovulation” and the “Presence of LH Surges (%)” value [1, 6] was 15%. For the same compound, the “Presence of Ova (%)” value [2, 6] was 30%.

In the case of CC[C@H](C)[C@@H]1NC(=O)[C@H](Cc2ccc(O)cc2)NC(=O)[C@@H](N)CSSC[C@@H](C(=O)N2CCC[C@H]2C(=O)N[C@@H](CCCNC(=N)N)C(=O)NCC(N)=O)NC(=O)[C@H](CC(N)=O)NC(=O)[C@H](CCC(N)=O)NC1=O [8-arginine vasotocin-dihydrochloride] (H-CYIQNCPRG-NH2; disulfide 1-6), the “Presence of LH Surges (%)” value [1, 12] is reported as 0% and the “Presence of Ova (%)” value [2, 12] is reported as 20%.

For NC(=O)CC[C@@H]1NC(=O)[C@H](Cc2ccccc2)NC(=O)[C@H](Cc2ccc(O)cc2)NC(=O)[C@@H](N)CSSC[C@@H](C(=O)N2CCC[C@H]2C(=O)N[C@@H](CCCN=C(N)N)C(=O)NCC(N)=O)NC(=O)[C@H](CC(N)=O)NC1=O [Vasopressin, reference compound], the “LH surge and ovulation inhibitory effect (in words)” value [1] was “considerable activity”, the “Presence of LH Surges (%)” value [1, 11] was 94% and the “Presence of LH Surges (%)” value [1, 7] was 37%. The “Presence of Ova (%)” value [2, 11] was 94%, the “Presence of Ova (%)” value [2, 7] was 62% and the “Presence of Prolactin Surge (%)” value [4, 9] was 57%. For the same compound, the “Presence of Prolactin Surge (%)” value [4, 10] was 17%, the “Inhibitory effect on prolactin surge (in words)” value [4] was “a lesser effect” and the Side effects [5] was “severe vasocontrictive side effects”.
